Results as given in patent publication US3985790A, “Phenoxyalkane carboxylic acid derivative” (priority 1974, dated 1976).
Where two headings read alike, the source gives them in different places.

What was measured:
[1] = test system: blood serum cholesterol and lipid levels; test: Effect on blood serum cholesterol and lipid levels, tolerability and toxicity, general statements; format: in vivo, SPF-Wistar rats; details: hyperlipemic conditions
Text: (§1) The therapeutic effectiveness of the salt of this invention ("clofibrinate") was compared with that of the fundamental parent substance, namely the 4-(p-chlorophenoxyacetylamino)-benzoic acid diethylaminoethyl ester, as well as clofibrate, that is the ethyl ester of clofibrinic acid, using SPF-Wistar rats. In these tests the compound in a vehicle was supplied orally for a period of 14 days. Twenty-four hours after the last dose blood analyses were made for determining the serum cholesterol and serum triglyceride levels.
In a first series of experiments, the effectiveness was studied in rats having normal blood lipid levels which were made hyperlipemic by means of a special fatty diet 1. This cholesterol-rich fatty diet 1 corresponded to that of Berger et al., Proc. Soc.
In a second series young male rats of 80-90 grams weight were fed a fat and cholesterol-rich diet (fatty diet 2). The statistical significance (p) of the results is also given.

[2] = test system: serum cholesterol and serum triglyceride levels; test: Antilipemic effect in young male rats, fatty diet 2 (high cholesterol-high fat), 14 days oral; format: in vivo, SPF-Wistar rats; details: fatty diet 2, 250 mg/kg oral
Text: In these tests the compound in a vehicle was supplied orally for a period of 14 days. Twenty-four hours after the last dose blood analyses were made for determining the serum cholesterol and serum triglyceride levels. In a second series young male rats of 80-90 grams weight were fed a fat and cholesterol-rich diet (fatty diet 2). The statistical significance (p) of the results is also given.

[3] = Acute toxicity (LD50); details: mouse, in vivo
[4] = test system: serum cholesterol and serum triglyceride levels; format: in vivo, SPF-Wistar rats; details: 14 days
Text: as §1
In a first series of experiments, the effectiveness was studied in rats having normal blood lipid levels which were made hyperlipemic by means of a special fatty diet 1. This cholesterol-rich fatty diet 1 corresponded to that of Berger et al., Proc. Soc. Ex. Biol. (1969) 132,293.

[5] = test system: human lipid metabolism; details: French Pat. No. 1,552,793; cited from earlier work
[6] = fatty diet 1, 1000 mg/kg oral, 3 of 10 animals died

Structure (SMILES)	effectiveness against elevated cholesterol and elevated triglyceride levels [1]	Decrease of triglycerides [2] [%]	Final Value Cholest. [2] [mg %]	Final Value Triglycerides [2]	LD50 [3] [mg/kg]	Decrease of cholesterol ([4]; fatty diet 1, 250 mg/kg oral) [%]	Decrease of triglycerides ([4]; fatty diet 1, 250 mg/kg oral) [%]	Final Value Cholest. ([4]; fatty diet 1, 250 mg/kg oral) [mg%]	Final Value Triglycerides ([4]; fatty diet 1, 250 mg/kg oral)	Decrease of cholesterol [4, 6] [%]	Final Value Cholest. [4, 6] [mg%]	Final Value Triglycerides [4, 6]	influence on human lipid metabolism [5]	Decrease of cholesterol ([4]; fatty diet 1, 100 mg/kg oral) [%]	Final Value Cholest. ([4]; fatty diet 1, 100 mg/kg oral) [mg%]	Final Value Triglycerides ([4]; fatty diet 1, 100 mg/kg oral)
CCOC(=O)C(C)(C)Oc1ccc(Cl)cc1 [Clofibrate, ethyl-2-(p-chlorophenoxy)-isobutyrate]	only slightly effective under hyperlipemic conditions or even fails completely	20.6	133.3	107.7	1150	3.0	12.5	347.9	75.6	31.6	245.4	120.3				
CCN(CC)CCOC(=O)c1ccc(NC(=O)COc2ccc(Cl)cc2)cc1 [Parent Compound, 4-(p-chlorophenoxyacetylamino)-benzoic acid diethylaminoethyl ester]						24.9		269.4	101.6				have an influence on human lipid metabolism	7.8	330.6	114.9
